Several values for one entry are separate records, joined by “and”; a condition that tells them apart may be missing. Identical values can stand only once. Like-named read-outs stand apart in the source and are kept apart here.
How the values were obtained:
[1] = biological target: human monoclonal nicotine-specific antibody F018, scFv-Fc fusion (scFv SEQ ID NO:60; HCVR SEQ ID NO:24, LCVR SEQ ID NO:26); conditions: read-out: Dissociation constant Kd, (S)-(-)-nicotine; scFv-Fc 5.4 µg/ml in PBS/2% BSA; tritium-labeled (S)-(-)-nicotine 3 to 444 nM; 48-72 h; mean ± SD of at least 2 independent experiments
Description: (§1) Affinity of antibodies for (S)-(-)-nicotine was determined by equilibrium dialysis using a DispoEquilibriumDialyzer (Harvard Biosciences). Two chambers of the dialyzer were separated by a membrane (10'000 Da cut-off). […] Concentrations of tritium-labeled (S)-(-)-nicotine (Amersham) ranging from 3 to 444 nM were used. Equilibrium dialysis was allowed to proceed for 48-72 h. Aliquots from both sides of the chamber were taken and radioactivity measured in a scintillation counter. Radioactivity corresponding to antibody-bound (S)-(-)-nicotine was calculated by subtracting the radioactivity measured for the chamber containing no antibody from the one containing the antibody. The free (S)-(-)-nicotine concentration was determined from the radioactivity measured for the chamber containing no antibody. The equilibrium dissociation constant (Kd) was derived from the fit of a one-site binding model to the measured bound radioactivity as a function of the free (S)-(-)-nicotine concentration. […]

[2] = biological target: human monoclonal nicotine-specific antibody F063, scFv-Fc fusion (scFv SEQ ID NO:62; HCVR SEQ ID NO:28, LCVR SEQ ID NO:31); conditions: read-out: Dissociation constant Kd, (S)-(-)-nicotine; scFv-Fc 5.4 µg/ml in PBS/2% BSA; tritium-labeled (S)-(-)-nicotine 3 to 444 nM; 48-72 h; mean ± SD of at least 2 independent experiments
Description: as §1

[3] = biological target: human monoclonal nicotine-specific antibody I022, scFv-Fc fusion (scFv SEQ ID NO:70; HCVR SEQ ID NO:43, LCVR SEQ ID NO:45); conditions: read-out: Dissociation constant Kd, (S)-(-)-nicotine; scFv-Fc 5.4 µg/ml in PBS/2% BSA; tritium-labeled (S)-(-)-nicotine 3 to 444 nM; 48-72 h; mean ± SD of at least 2 independent experiments
Description: as §1

[4] = biological target: human monoclonal nicotine-specific antibody IgG2-I022 (HCVR SEQ ID NO:43, LCVR SEQ ID NO:45); conditions: read-out: Dissociation constant Kd, (S)-(-)-nicotine; IgG2 7.5 µg/ml in PBS/2% BSA; tritium-labeled (S)-(-)-nicotine 3 to 444 nM; 48-72 h; mean ± SD of at least 2 independent experiments
Description: as §1

[5] = biological target: human monoclonal nicotine-specific antibody IgG2-N038 (HCVR SEQ ID NO:47, LCVR SEQ ID NO:49); conditions: read-out: Dissociation constant Kd, (S)-(-)-nicotine; IgG2 7.5 µg/ml in PBS/2% BSA; tritium-labeled (S)-(-)-nicotine 3 to 444 nM; 48-72 h; measured only once
Description: as §1

[6] = biological target: human monoclonal nicotine-specific antibody J004, scFv-Fc fusion (scFv SEQ ID NO:64; HCVR SEQ ID NO:33, LCVR SEQ ID NO:35); conditions: read-out: Dissociation constant Kd, (S)-(-)-nicotine; scFv-Fc 5.4 µg/ml in PBS/2% BSA; tritium-labeled (S)-(-)-nicotine 3 to 444 nM; 48-72 h; mean ± SD of at least 2 independent experiments
Description: as §1

[7] = biological target: human monoclonal nicotine-specific antibody J042, scFv-Fc fusion (scFv SEQ ID NO:66; HCVR SEQ ID NO:28, LCVR SEQ ID NO:37); conditions: read-out: Dissociation constant Kd, (S)-(-)-nicotine; scFv-Fc 5.4 µg/ml in PBS/2% BSA; tritium-labeled (S)-(-)-nicotine 3 to 444 nM; 48-72 h; mean ± SD of at least 2 independent experiments
Description: as §1

[8] = biological target: human monoclonal nicotine-specific antibody N038, scFv-Fc fusion (scFv SEQ ID NO:72; HCVR SEQ ID NO:47, LCVR SEQ ID NO:49); conditions: read-out: Dissociation constant Kd, (S)-(-)-nicotine; scFv-Fc 5.4 µg/ml in PBS/2% BSA; tritium-labeled (S)-(-)-nicotine 3 to 444 nM; 48-72 h; mean ± SD of at least 2 independent experiments
Description: as §1

[9] = biological target: human monoclonal nicotine-specific antibody N049, scFv-Fc fusion (scFv SEQ ID NO:68; HCVR SEQ ID NO:39, LCVR SEQ ID NO:41); conditions: read-out: Dissociation constant Kd, (S)-(-)-nicotine; scFv-Fc 5.4 µg/ml in PBS/2% BSA; tritium-labeled (S)-(-)-nicotine 3 to 444 nM; 48-72 h; mean ± SD of at least 2 independent experiments
Description: as §1

[10] = test system: human monoclonal nicotine-specific antibody IgG2-F018 (HCVR SEQ ID NO:24, LCVR SEQ ID NO:26); experiment: Equilibrium dialysis, affinity and competition; type: binding; conditions: for Cross-reactivity: competition with tritium-labeled (S)-(-)-nicotine for binding to IgG2-F018: 56 nM tritium-labeled (S)-(-)-nicotine, IgG2-F018 50 nM, unlabeled compound 1 nM to 100 µM, acetylcholine even at a 4000 fold molar excess
Description: Figure 1. Specificity of IgG2-F018. The binding of tritium-labeled (-)-nicotine (56 nM) to IgG2-F018 (50 nM) was measured by equilibrium dialysis in the presence of increasing concentrations of unlabeled (-)-nicotine, (-)-cotinine or acetylcholine. Averages of two independent experiments are given with standard deviation.
as §1
Cross-reactivity of mAb IgG2-F018 to (-)-cotinine and acetylcholine was determined by co-incubation of 10 fold serial dilutions of these compounds (1 nM to 100 µM) with 56 nM tritium-labeled (S)-(-)-nicotine in the equilibrium dialysis chambers as described above (Figure 1).
(§2) We next determined the affinities of mAbs IgG2-F018, -F063, -J004, -J042 and-N049 for the (R)-(+)-isomer of nicotine. This stereoisomer is present in the tobacco plant. In addition, it can be formed by the combustion process during smoking and has qualitatively similar activities on the central nervous system as (S)-(-)-nicotine (Hukkanen J. et al., 2005, Pharmacol. Rev. 57, 79-115). Thus, the binding of a fixed concentration of tritium-labeled (S)-(-)-nicotine (F018: 56 nM; F063, J004, J042, N049: 111 nM) to each of the antibodies was measured by equilibrium dialysis in the presence of increasing concentrations of unlabeled (R)-(+)-nicotine (1 nM to 100 µM). The equilibrium dissociation constant (Kd) was derived from the fit of a one-site competition model to the measured bound radioactivity as a function of the (R)-(+)-nicotine concentration. […] Table 5. Dissociation constants Kd (nM) of antibody-(R)-(+)-nicotine interactions measured by equilibrium dialysis.

[11] = biological target: human monoclonal nicotine-specific antibody IgG2-F063 (HCVR SEQ ID NO:28, LCVR SEQ ID NO:31)
Description: as §1, §2

[12] = biological target: human monoclonal nicotine-specific antibody IgG2-J004 (HCVR SEQ ID NO:33, LCVR SEQ ID NO:35)
Description: as §1, §2

[13] = biological target: human monoclonal nicotine-specific antibody IgG2-J042 (HCVR SEQ ID NO:28, LCVR SEQ ID NO:37)
Description: as §1, §2

[14] = biological target: human monoclonal nicotine-specific antibody IgG2-N049 (HCVR SEQ ID NO:39, LCVR SEQ ID NO:41)
Description: as §1, §2

[15] = biological target: polyclonal antibodies against (S)-(-)-nicotine; conditions: read-out: affinity of polyclonal antibodies against (S)-(-)-nicotine; Maurer P. et al., 2005; cited from earlier work
[16] = read-out: Dissociation constant Kd, (S)-(-)-nicotine, IgG2 7.5 µg/ml in PBS/2% BSA, tritium-labeled (S)-(-)-nicotine 3 to 444 nM, 48-72 h, mean ± SD of at least 2 independent experiments
[17] = read-out: Dissociation constant Kd of antibody-(R)-(+)-nicotine interaction, competition with 111 nM tritium-labeled (S)-(-)-nicotine, unlabeled (R)-(+)-nicotine 1 nM to 100 µM, one-site competition model

CN1CCC[C@H]1c1cccnc1 [(S)-(-)-nicotine]
Kd [1]: 11.5 ± 1.5 nM | Kd [2]: 70.5 ± 14 nM | Kd [3]: 42.5 ± 17 nM | Kd [4]: 89.9 ± 9.8 nM | Kd [5]: 744 nM | Kd [6]: 33.3 ± 2 nM | Kd [7]: 47 ± 3.1 nM | Kd [8]: 686 ± 58 nM | Kd [9]: 72.7 ± 5.6 nM | Cross-reactivity: competition with tritium-labeled (S)-(-)-nicotine for binding to IgG2-F018 [10]: readily displaced | Kd ([10]; IgG2 7.5 µg/ml in PBS/2% BSA, tritium-labeled (S)-(-)-nicotine 3 to 444 nM, 48-72 h, mean ± SD of at least 2 independent experiments, read-out: Dissociation constant Kd, (S)-(-)-nicotine): 7 nM and 7.4 nM | Kd [11, 16]: 31.4 ± 13 nM | Kd [12, 16]: 64.5 ± 2.2 nM | Kd [13, 16]: 30.2 ± 11 nM | Kd [14, 16]: 35.6 ± 3.5 nM | Kd [15]: 30 to 70 nM

CN1C(=O)CC[C@H]1c1cccnc1 [(-)-cotinine]
Cross-reactivity: competition with tritium-labeled (S)-(-)-nicotine for binding to IgG2-F018 [10]: did not effectively compete | Binding strength relative to (S)-(-)-nicotine (fold less strongly), estimated from the IC50 observed ([10]; equilibrium dialysis competition with 56 nM tritium-labeled (S)-(-)-nicotine): about 1000 fold

CN1CCC[C@@H]1c1cccnc1 [(R)-(+)-nicotine]
Kd ([10]; competition with 56 nM tritium-labeled (S)-(-)-nicotine, unlabeled (R)-(+)-nicotine 1 nM to 100 µM, one-site competition model, read-out: Dissociation constant Kd of antibody-(R)-(+)-nicotine interaction): 3.1 nM | Kd [11, 17]: 6.6 nM | Kd [12, 17]: 12.6 nM | Kd [13, 17]: 7.7 nM | Kd [14, 17]: 10.5 nM
